Results taken from patent US4048299A, “Anticaries confectionaries and oral health products” (William Wrigley, Jr. Co., priority 1970, dated 1977).

Experiments:
[1] = system: Lactobacillus casei ATCC 4646; assay: Acid production inhibition by aldehydes in product vehicles, broth-tube technique; type: cell-based; settings: 1 to 5 percent aldehyde
[2] = system: Mixed human oral microorganisms; assay: as above; type: cell-based; settings: 1 to 5 percent aldehyde
Streptococcus spp. KI-R = assay: as above; type: cell-based; settings: 1 to 5 percent aldehyde
[3] = system: Mixed human oral microorganisms; assay: Growth inhibition by aldehydes in product vehicles, pour-plate technique; type: cell-based; settings: 1 to 5 percent aldehyde
Outline: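 Aldehydes (1 to 5 percent by weight) were formulated into syrups, candies, mouthwash, toothpaste or toothpowder, added directly or as aqueous extracts to medium without a carbon source mixed 1:1 with filter-sterilized human saliva. Sugar came from the product or added sucrose. Growth over up to 24 hours was read by pour-plate count.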

[4] = In vivo caries evaluation, laboratory animals (summary); settings: one percent level in diet
Outline: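 Aldehyde added to animals' food at one percent by weight over several weeks, with caries reduction assessed by standard laboratory techniques.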

oral microorganisms = assay: Acid production inhibition in vitro (summary); type: cell-based; settings: in words, summary of tables
Experimental: Other in vitro evaluations utilized a broth tube analysis of representative anticaries aldehydes incorporated in the vehicles of this invention against cultures of acid producing microorganisms normally present in the mouth. Standard laboratory procedures were utilized throughout to evaluate the acid production inhibition and growth inhibition over the incubation time of up to 24 hours.

[5] = In vivo caries evaluation, Osborne-Mendel strain 1 rat; parameters: species or system rat (Osborne-Mendel strain 1); Caries Score, Mean Incidence / Caries Score, Mean Extent: scale not given here; settings: Table I, 90 days; for Caries Score, Mean Incidence / Caries Score, Mean Extent: 1 percent in diet; for Caries Score, Mean Incidence: RCD control 23.3 (pyruvaldehyde test), 12.85 (glycolaldehyde test); for Caries Score, Mean Extent: RCD control 64.8 (pyruvaldehyde test), 35.45 (glycolaldehyde test); for Caries Extent Reduction, statistical evaluation / Caries Incidence Reduction, statistical evaluation: Student's test, 95 percent confidence limit
Outline: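 Rats of two Osborne-Mendel strains and albino hamsters were fed diets containing each aldehyde or polyaldehyde at 1 percent by weight for several weeks. Caries incidence was then scored by standard laboratory methods to assess caries reduction.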

Lactobacillus casei = assay: Acid production inhibition, broth-tube technique; settings: single agent
From the text: The data was compiled through well-known broth tube analysis techniques.
(a)Measured by broth-tube technique.

[6] = in compressed candy tablet, 2 h incubation
[7] = in compressed candy tablet, 5 h incubation
[8] = in compressed candy tablet, 24 h incubation
[9] = in dextrose syrup, 2 h incubation
[10] = in dextrose syrup, 5 h incubation
[11] = in dextrose syrup, 24 h incubation
[12] = in sucrose syrup, 2 h incubation
[13] = in sucrose syrup, 5 h incubation
[14] = in sucrose syrup, 24 h incubation
[15] = in tooth powder (aqueous extract), 2 h incubation
[16] = in tooth powder (aqueous extract), 5 h incubation
[17] = in tooth powder (aqueous extract), 24 h incubation
[18] = in toothpaste (aqueous extract), 2 h incubation
[19] = in toothpaste (aqueous extract), 5 h incubation
[20] = in toothpaste (aqueous extract), 24 h incubation

Compound: O=CCO [Glycolaldehyde]
- Acid Production Inhibition [1, 6]: 0 Per Cent
- Acid Production Inhibition [1, 7]: 0 Per Cent
- Acid Production Inhibition [1, 8]: 64 Per Cent
- Acid Production Inhibition [1, 9]: 33 Per Cent
- Acid Production Inhibition [1, 10]: 3 Per Cent
- Acid Production Inhibition [1, 11]: 85 Per Cent
- Acid Production Inhibition [1, 12]: 0 Per cent
- Acid Production Inhibition [1, 13]: 0 Per cent
- Acid Production Inhibition [1, 14]: 86 Per cent
- Acid Production Inhibition [1, 15]: 0 Per cent
- Acid Production Inhibition [1, 16]: 0 Per cent
- Acid Production Inhibition [1, 17]: 73 Per cent
- Acid Production Inhibition [1, 18]: 0 Per cent
- Acid Production Inhibition [1, 19]: 0 Per cent
- Acid Production Inhibition [1, 20]: 0 Per cent
- Acid Production Inhibition [2, 6]: 0 Per Cent
- Acid Production Inhibition [2, 7]: 84 Per Cent
- Acid Production Inhibition [2, 8]: 72 Per Cent
- Acid Production Inhibition [2, 9]: 15 Per Cent
- Acid Production Inhibition [2, 10]: 87 Per Cent
- Acid Production Inhibition [2, 11]: 87 Per Cent
- Acid Production Inhibition ([2]; in mouthwash, 2 h incubation): 0 Per cent
- Acid Production Inhibition ([2]; in mouthwash, 5 h incubation): 87 Per cent
- Acid Production Inhibition ([2]; in mouthwash, 24 h incubation): 80 Per cent
- Acid Production Inhibition [2, 12]: 44 Per cent
- Acid Production Inhibition [2, 13]: 90 Per cent
- Acid Production Inhibition [2, 14]: 85 Per cent
- Acid Production Inhibition [2, 15]: 0 Per cent
- Acid Production Inhibition [2, 16]: 82 Per cent
- Acid Production Inhibition [2, 17]: 77 Per cent
- Acid Production Inhibition [2, 18]: 0 Per cent
- Acid Production Inhibition [2, 19]: 0 Per cent
- Acid Production Inhibition [2, 20]: 0 Per cent
- Acid Production Inhibition (Streptococcus spp. KI-R; [6]): 0 Per Cent
- Acid Production Inhibition (Streptococcus spp. KI-R; [7]): 0 Per Cent
- Acid Production Inhibition (Streptococcus spp. KI-R; [8]): 73 Per Cent
- Acid Production Inhibition (Streptococcus spp. KI-R; [9]): 57 Per Cent
- Acid Production Inhibition (Streptococcus spp. KI-R; [10]): 81 Per Cent
- Acid Production Inhibition (Streptococcus spp. KI-R; [11]): 77 Per Cent
- Acid Production Inhibition (Streptococcus spp. KI-R; in mouthwash, 2 h incubation): 0 Per cent
- Acid Production Inhibition (Streptococcus spp. KI-R; in mouthwash, 5 h incubation): 0 Per cent
- Acid Production Inhibition (Streptococcus spp. KI-R; in mouthwash, 24 h incubation): 78 Per cent
- Acid Production Inhibition (Streptococcus spp. KI-R; [12]): 19 Per cent
- Acid Production Inhibition (Streptococcus spp. KI-R; [13]): 85 Per cent
- Acid Production Inhibition (Streptococcus spp. KI-R; [14]): 84 Per cent
- Acid Production Inhibition (Streptococcus spp. KI-R; [15]): 0 Per cent
- Acid Production Inhibition (Streptococcus spp. KI-R; [16]): 0 Per cent
- Acid Production Inhibition (Streptococcus spp. KI-R; [17]): 0 Per cent
- Acid Production Inhibition (Streptococcus spp. KI-R; [18]): 0 Per cent
- Acid Production Inhibition (Streptococcus spp. KI-R; [19]): 0 Per cent
- Acid Production Inhibition (Streptococcus spp. KI-R; [20]): 0 Per cent
- Growth Inhibition [3, 6]: 99.3 Per Cent
- Growth Inhibition [3, 7]: 100 Per Cent
- Growth Inhibition [3, 8]: 100 Per Cent
- Growth Inhibition [3, 9]: 99 Per Cent
- Growth Inhibition [3, 10]: 100 Per Cent
- Growth Inhibition [3, 11]: 91.4 Per Cent
- Growth Inhibition ([3]; in mouthwash, 2 h incubation): 99.7 Per cent
- Growth Inhibition ([3]; in mouthwash, 5 h incubation): 100 Per cent
- Growth Inhibition ([3]; in mouthwash, 24 h incubation): 99.90 Per cent
- Growth Inhibition [3, 12]: 98 Per cent
- Growth Inhibition [3, 13]: > 99.99 Per cent
- Growth Inhibition [3, 14]: > 99 Per cent
- Growth Inhibition [3, 15]: N.S.
- Growth Inhibition [3, 16]: 99.97 Per cent
- Growth Inhibition [3, 17]: 100 Per cent
- Growth Inhibition [3, 18]: N.S.
- Growth Inhibition [3, 19]: N.S.
- Growth Inhibition [3, 20]: 100 Per cent
- Anticaries effect in laboratory animals [4]: significant anticaries effects
- Acid Production Inhibition (oral microorganisms): excellent acid production inhibition
- Caries Score, Mean Incidence [5]: 5.53
- Caries Score, Mean Extent [5]: 13.19
- Caries Extent Reduction, statistical evaluation [5]: Significant
- Caries Incidence Reduction, statistical evaluation [5]: Significant
- Acid Production Inhibition (Lactobacillus casei; 0.02 percent): 18%
- Acid Production Inhibition (Lactobacillus casei; 0.025 percent): 23%
- Acid Production Inhibition (Lactobacillus casei; 0.03 percent): 27%

Compound: CC(=O)C=O [Pyruvaldehyde]
- Acid Production Inhibition [1, 6]: 0 Per Cent
- Acid Production Inhibition [1, 7]: 0 Per Cent
- Acid Production Inhibition [1, 8]: 75 Per Cent
- Acid Production Inhibition [1, 9]: 52 Per Cent
- Acid Production Inhibition [1, 10]: 33 Per Cent
- Acid Production Inhibition [1, 11]: 88 Per Cent
- Acid Production Inhibition ([1]; in hard candy, 2 h incubation): 0 Per Cent
- Acid Production Inhibition ([1]; in hard candy, 5 h incubation): 22 Per Cent
- Acid Production Inhibition ([1]; in hard candy, 24 h incubation): 90 Per Cent
- Acid Production Inhibition [1, 12]: 0 Per cent
- Acid Production Inhibition [1, 13]: 20.0 Per cent
- Acid Production Inhibition [1, 14]: 89.6 Per cent
- Acid Production Inhibition [1, 15]: 0 Per cent
- Acid Production Inhibition [1, 16]: 0 Per cent
- Acid Production Inhibition [1, 17]: 71 Per cent
- Acid Production Inhibition [1, 18]: 0 Per cent
- Acid Production Inhibition [1, 19]: 0 Per cent
- Acid Production Inhibition [1, 20]: 0 Per cent
- Acid Production Inhibition [2, 6]: 0 Per Cent
- Acid Production Inhibition [2, 7]: 89 Per Cent
- Acid Production Inhibition [2, 8]: 78 Per Cent
- Acid Production Inhibition [2, 9]: 15 Per Cent
- Acid Production Inhibition [2, 10]: 89 Per Cent
- Acid Production Inhibition [2, 11]: 83 Per Cent
- Acid Production Inhibition ([2]; in hard candy, 2 h incubation): 20 Per Cent
- Acid Production Inhibition ([2]; in hard candy, 5 h incubation): 93 Per Cent
- Acid Production Inhibition ([2]; in hard candy, 24 h incubation): 84 Per Cent
- Acid Production Inhibition ([2]; in mouthwash, 2 h incubation): 0 Per cent
- Acid Production Inhibition ([2]; in mouthwash, 5 h incubation): 94 Per cent
- Acid Production Inhibition ([2]; in mouthwash, 24 h incubation): 87 Per cent
- Acid Production Inhibition [2, 12]: 77.8 Per cent
- Acid Production Inhibition [2, 13]: 92.1 Per cent
- Acid Production Inhibition [2, 14]: 91.8 Per cent
- Acid Production Inhibition [2, 15]: 0 Per cent
- Acid Production Inhibition [2, 16]: 86 Per cent
- Acid Production Inhibition [2, 17]: 80 Per cent
- Acid Production Inhibition [2, 18]: 0 Per cent
- Acid Production Inhibition [2, 19]: 0 Per cent
- Acid Production Inhibition [2, 20]: 0 Per cent
- Acid Production Inhibition (Streptococcus spp. KI-R; [6]): 0 Per Cent
- Acid Production Inhibition (Streptococcus spp. KI-R; [7]): 30 Per Cent
- Acid Production Inhibition (Streptococcus spp. KI-R; [8]): 83 Per Cent
- Acid Production Inhibition (Streptococcus spp. KI-R; [9]): 57 Per Cent
- Acid Production Inhibition (Streptococcus spp. KI-R; [10]): 86 Per Cent
- Acid Production Inhibition (Streptococcus spp. KI-R; [11]): 82 Per Cent
- Acid Production Inhibition (Streptococcus spp. KI-R; in hard candy, 2 h incubation): 40 Per Cent
- Acid Production Inhibition (Streptococcus spp. KI-R; in hard candy, 5 h incubation): 87 Per Cent
- Acid Production Inhibition (Streptococcus spp. KI-R; in hard candy, 24 h incubation): 86 Per Cent
- Acid Production Inhibition (Streptococcus spp. KI-R; in mouthwash, 2 h incubation): 0 Per cent
- Acid Production Inhibition (Streptococcus spp. KI-R; in mouthwash, 5 h incubation): 0 Per cent
- Acid Production Inhibition (Streptococcus spp. KI-R; in mouthwash, 24 h incubation): 86 Per cent
- Acid Production Inhibition (Streptococcus spp. KI-R; [12]): 37.5 Per cent
- Acid Production Inhibition (Streptococcus spp. KI-R; [13]): 82.3 Per cent
- Acid Production Inhibition (Streptococcus spp. KI-R; [14]): 86.4 Per cent
- Acid Production Inhibition (Streptococcus spp. KI-R; [15]): 0 Per cent
- Acid Production Inhibition (Streptococcus spp. KI-R; [16]): 0 Per cent
- Acid Production Inhibition (Streptococcus spp. KI-R; [17]): 0 Per cent
- Acid Production Inhibition (Streptococcus spp. KI-R; [18]): 0 Per cent
- Acid Production Inhibition (Streptococcus spp. KI-R; [19]): 0 Per cent
- Acid Production Inhibition (Streptococcus spp. KI-R; [20]): 0 Per cent
- Growth Inhibition [3, 6]: 99.7 Per Cent
- Growth Inhibition [3, 7]: 99.99 Per Cent
- Growth Inhibition [3, 8]: 99.98 Per Cent
- Growth Inhibition [3, 9]: 99.8 Per Cent
- Growth Inhibition [3, 10]: 100 Per Cent
- Growth Inhibition [3, 11]: 99.99 Per Cent
- Growth Inhibition ([3]; in hard candy, 2 h incubation): 99.5 Per Cent
- Growth Inhibition ([3]; in hard candy, 5 h incubation): 100 Per Cent
- Growth Inhibition ([3]; in hard candy, 24 h incubation): N.S.
- Growth Inhibition ([3]; in mouthwash, 2 h incubation): 99.0 Per cent
- Growth Inhibition ([3]; in mouthwash, 5 h incubation): 100 Per cent
- Growth Inhibition ([3]; in mouthwash, 24 h incubation): 99.7 Per cent
- Growth Inhibition [3, 12]: > 99.9 Per cent
- Growth Inhibition [3, 13]: > 99.99 Per cent
- Growth Inhibition [3, 14]: N.S.
- Growth Inhibition [3, 15]: N.S.
- Growth Inhibition [3, 16]: 99.99 Per cent
- Growth Inhibition [3, 17]: 99.94 Per cent
- Growth Inhibition [3, 18]: 100 Per cent
- Growth Inhibition [3, 19]: N.S.
- Growth Inhibition [3, 20]: 100 Per cent
- Anticaries effect in laboratory animals [4]: significant anticaries effects
- Acid Production Inhibition (oral microorganisms): excellent acid production inhibition
- Caries Score, Mean Incidence [5]: 8.6
- Caries Score, Mean Extent [5]: 21.7
- Caries Extent Reduction, statistical evaluation [5]: Significant
- Caries Incidence Reduction, statistical evaluation [5]: Significant
- Acid Production Inhibition (Lactobacillus casei; 0.005 percent): 24%
- Acid Production Inhibition (Lactobacillus casei; 0.0075 percent): 57%
